Read-outs that look alike come from different tables or passages of the source.
Biological target: T1, AChE enzyme from electric eel (EeAChE) (type VI) (Electrophorus electricus, UniProt O42275)
T1 construct: purchased Sigma-Aldrich, Steinheim, Germany type VI (catalogue number not given)
Assay: In vitro AChE inhibition assay (modified Ellman method)
Type: biochemical
Experimental: AChE enzyme from electric eel (EeAChE) (type VI), acetylthiocholine iodide, Ellman reagent, 5,5-dithiobis-2-nitro benzoic acid (DTNB), and Eserine (standard inhibitor) were purchased from Sigma-Aldrich, Steinheim, Germany. AChE inhibitory activity was performed in vitro using a modified spectrophotometric method developed by Ellman et al.. Experiments were carried out in a 96-well microtiter plate using a Multiskan spectrum spectrophotometer. The test compounds were prepared immediately before the experiment as fresh samples. Each compound was dissolved in 200 μL methanol, 150 μL […] phosphate buffer (pH 8.0), and 20 μL AChE enzyme. An aliquot of 10 μL of resulting test solutions was mixed and incubated at 25 °C for 10 min. The sample with 10 μL of solvent (methanol) rather than the test compound served as a negative control. After 10 min, 10 μL DTNB was added to the wells and the reaction was initiated with the addition of 10 μL acetylthiocholine (ATCh). All of the samples were prepared and analyzed in triplicate. The hydrolysis of ATCh was monitored at wavelength 412 nm by measuring the formation of a yellow anion of 5-thio-2-nitrobenzoate due to the reaction of DTNB with thiocholine. The initial rate was measured as the change in optical density/min (OD/min). As the extinct coefficient of the yellow anion is known, the following equation was used to calculate the rate of the enzymatic reaction: (1) Rate (moles/L/min) = change in absorbance/εTNB where εTNB is the molar extinction coefficient value of 5-thio-2-nitrobenzoate = 13.6 × 10^3 at 412 nm.
The following formula was used to calculate the % enzyme inhibition by test compounds:(2) % inhibition = 1−Rate of change in the absorbance of test/Rate of change in the absorbance of cotrol × 100
Chalcone solutions were serially diluted to different concentrations (0.0977–50 µM) and were analyzed in triplicate using the above-described modified Ellman’s method. Finally, IC50 values were determined and statistically analyzed using EZ-Fit Enzyme Kinetic Program (Perrella Scientific Inc., Amherst, MA, USA).

[1] = EeAChE, Ellman method, triplicate, 25 °C, pH 8.0, read-out: IC50 (AChE inhibitory activity)

T1 sequence (O42275 24-633): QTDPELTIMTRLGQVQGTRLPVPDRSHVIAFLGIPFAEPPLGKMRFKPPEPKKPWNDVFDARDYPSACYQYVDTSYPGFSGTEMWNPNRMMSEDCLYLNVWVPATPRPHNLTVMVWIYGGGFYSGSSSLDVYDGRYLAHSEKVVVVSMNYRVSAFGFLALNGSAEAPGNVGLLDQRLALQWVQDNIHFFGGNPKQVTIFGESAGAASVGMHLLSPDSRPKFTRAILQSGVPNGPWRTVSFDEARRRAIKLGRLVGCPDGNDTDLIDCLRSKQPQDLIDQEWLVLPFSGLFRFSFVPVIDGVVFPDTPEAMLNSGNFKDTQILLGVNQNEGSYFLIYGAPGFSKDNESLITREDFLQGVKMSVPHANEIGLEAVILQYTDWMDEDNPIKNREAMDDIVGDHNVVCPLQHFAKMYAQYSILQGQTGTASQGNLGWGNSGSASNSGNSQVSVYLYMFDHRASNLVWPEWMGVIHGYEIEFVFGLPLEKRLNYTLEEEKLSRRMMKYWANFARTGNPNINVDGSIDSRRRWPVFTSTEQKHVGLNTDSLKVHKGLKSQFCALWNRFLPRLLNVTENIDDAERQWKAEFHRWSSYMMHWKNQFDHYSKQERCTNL

Row | Structure (SMILES) | IC50 [1] [µM] | IC50 [µM]
1 | O=C(/C=C/c1ccc([N+](=O)[O-])cc1)c1ccc(Br)cc1 [Compound C5, (E)-1-(4-bromophenyl)-3-(4-nitrophenyl)prop-2-en-1-one] | 37.6 ± 0.75 | –
2 | COc1ccc(/C=C/C(=O)c2ccc(Cl)cc2)cc1 [Compound C3, (E)-1-(4-chlorophenyl)-3-(4-methoxyphenyl)prop-2-en-1-one] | – | 32 ± 2.4
3 | CCc1ccc(C(=O)/C=C/c2ccc([N+](=O)[O-])cc2)cc1 [Compound C2, (E)-1-(4-ethylphenyl)-3-(4-nitrophenyl)prop-2-en-1-one] | 31.2 ± 1.8 | –
4 | O=C(/C=C/c1ccccc1)c1ccc(Cl)cc1 [Compound C1, (E)-1-(4-chlorophenyl)-3-phenylprop-2-en-1-one] | 22 ± 2.8 | –

— paper PMC9145706 (Molecules, 2022)
